Assay results as given in patent publication US6930131B2, “Aryl substituted 3-ethoxy phenyl trifluoromethane sulfonamides for the treatment of non-insulin dependent diabetes mellitus (NIDDM)” (Wyeth, priority 2002, dated 2005).

Compound `COc1cccc(-c2ccc(COCCc3cccc(NS(=O)(=O)C(F)(F)F)c3)c(F)c2)c1` [Example 20, C,C,C-Trifluoro-N-{3-[2-(3-fluoro-3′-methoxy-biphenyl-4-yl-methoxy)ethyl]-phenyl}-methanesulfonamide] has a melting point of 80 to 82 °C.
Compound `COc1ccc(-c2ccc(COCCc3cccc(NS(=O)(=O)C(F)(F)F)c3)cc2)cc1` [Example 4, C,C,C-Trifluoro-N-{3-[2-(4′-methoxy-biphenyl-4-ylmethoxy)-ethyl]-phenyl}-methanesulfonamide] has a melting point of 96 to 98 °C.
`O=S(=O)(NCCc1cccc(OCc2noc(-c3ccc(C(F)(F)F)cc3)n2)c1)C(F)(F)F` [Example 82, N-{2-[3-(5-(4-Trifluoromethyl-phenyl) [1,2,4]oxadiazol-3-ylmethoxy)-phenyl]-ethyl}-C,C,C-trifluoro-methanesulfonamide] showed a melting point of 83 to 86 °C.
`O=S(=O)(Nc1cccc(CCOCc2ccc(-c3cccc(C(F)(F)F)c3)cc2F)c1)C(F)(F)F` [Example 17, C,C,C-Trifluoro-N-{3-[2-(3-fluoro-3′-trifluoromethyl-biphenyl-4-yl-methoxy)-ethyl]-phenyl}-methanesulfonamide] showed a melting point of 60 to 61 °C.
`O=S(=O)(Nc1cccc(CCOCc2cccc(-c3ccccc3)n2)c1)C(F)(F)F` [Example 65, C,C,C-Trifluoro-N-{3-[2-(6-phenyl-pyridin-2-ylmethoxy)-ethyl]-phenyl}-methane sulfonamide] gave a melting point of 75 to 77 °C.
With `O=S(=O)(Nc1cccc(CCOCc2csc(-c3ccc(OC(F)(F)F)cc3)n2)c1)C(F)(F)F` [Example 61, C,C,C-Trifluoro-N-(3-{2-[2-(4-trifluoromethoxy-phenyl)-thiazol-4-yl-methoxy]-ethyl}-phenyl)-methanesulfonamide] the melting point was 115 to 116 °C.
`O=S(=O)(Nc1cccc(CCOCc2ccc(-c3ccc(F)cc3)cc2F)c1)C(F)(F)F` [Example 10, N-{3-[2-(3,4′-Difluoro-biphenyl-4-ylmethoxy)-ethyl]-phenyl}-C,C,C-trifluoro-methanesulfonamide] gave a melting point of 65 to 67 °C.
For `O=S(=O)(Nc1cccc(CCOCc2noc(-c3cccc(C(F)(F)F)c3)n2)c1)C(F)(F)F` [Example 83, N-{3-[2-(5-(3-trifluoromethyl-phenyl)-[1,2,4]oxadiazol-3-ylmethoxy)-ethyl]-phenyl}-C,C,C-trifluoro-methanesulfonamide], the melting point was 62 to 64 °C.
`COc1ccc(-c2cccc(COCCc3cccc(NC(N)=O)c3)c2)cc1` [Example 39, {3-[2-(4′-Methoxy-biphenyl-3-ylmethoxy)-ethyl]-phenyl}-urea] gave a melting point of 87 to 89 °C.
In the case of `O=S(=O)(Nc1cccc(CCOCc2cccc(-c3ccc(F)cc3)c2)c1)C(F)(F)F` [Example 36, N-{3-[2-(4′-Fluoro-biphenyl-3-ylmethoxy)-ethyl]-phenyl)-C,C,C-trifluoro-methanesulfonamide], the melting point is reported as 48 to 50 °C.
In the case of `O=S(=O)(Nc1cccc(CCOCc2ccc(-c3ccc(Cl)cc3Cl)cc2F)c1)C(F)(F)F` [Example 15, N-{3-[2-(2′,4′-Dichloro-3-fluoro-biphenyl-4-ylmethoxy)-ethyl]-phenyl}-C,C,C-trifluoro-methanesulfonamide], the melting point is reported as 65 to 66 °C.
Compound `COc1cccc(-c2nc(COCCc3cccc(NS(=O)(=O)C(F)(F)F)c3)no2)c1` [Example 84, N-{3-[2-(5-(3-methoxy-phenyl)-[1,2,4]oxadiazol-3-ylmethoxy)-ethyl]-phenyl}-C,C,C-trifluoro-methanesulfonamide] has a melting point of 52 to 54 °C.
`Cc1cccc(-c2ccc(COCCc3cccc(NS(=O)(=O)C(F)(F)F)c3)c(F)c2)c1` [Example 16, C,C,C-Trifluoro-N-{3-[2-(3-fluoro-3′-methyl-biphenyl-4-yl-methoxy)-ethyl]-phenyl}-methanesulfonamide] showed a melting point of 60 to 61 °C.
`O=S(=O)(Nc1cccc(CCOCc2csc(-c3ccc(C(F)(F)F)cn3)n2)c1)C(F)(F)F` [Example 57, C,C,C-Trifluoro-N-(3-{2-[2-(5-trifluoromethyl-pyridin-2-yl)-thiazol-4-yl-methoxy]ethyl}-phenyl)-methanesulfonamide] showed a melting point of 116 to 117 °C.
Work on `COc1ccc(-c2ccc(Cl)cc2)cc1COCCc1cccc(NS(=O)(=O)C(F)(F)F)c1` [Example 40, N-{3-[2-(4′-Chloro-4-methoxy-biphenyl-3-ylmethoxy)-ethyl]-phenyl}-C,C,C-trifluoromethanesulfonamide] yielded a melting point of 99 to 101 °C.
`O=S(=O)(Nc1cccc(CCOCc2ccc(-c3ccccn3)cc2)c1)C(F)(F)F` [Example 8, C,C,C-Trifluoro-N-{3-[2-(4-pyridin-2-yl-benzyloxy)-ethyl]-phenyl}-methane sulfonamide] gave a melting point of 95 to 96 °C.
Work on `O=S(=O)(Nc1cccc(CCOCc2csc(-c3ccccc3Cl)n2)c1)C(F)(F)F` [Example 60, N-(3-{2-[2-(2-Chloro-phenyl)-thiazol-4-ylmethoxy]-ethyl}-phenyl)-C,C,C-trifluoro-methanesulfonamide] yielded a melting point of 86 to 87 °C.
In the case of `COc1ccc(-c2cccc(COCCc3cccc(NS(=O)(=O)C(F)(F)F)c3)c2)cc1` [Example 28, C,C,C-Trifluoro-N-{3-[2-(4′-methoxy-biphenyl-3-ylmethoxy)-ethyl]-phenyl}-methanesulfonamide], the melting point is reported as 88 to 90 °C.
With `O=S(=O)(Nc1cccc(CCOCc2ccc(Oc3ccccc3)cc2)c1)C(F)(F)F` [Example 76, N-{3-[2-(4-Phenoxy-benzyloxy)-ethyl]-phenyl}-C,C,C-trifluoro-methane sulfonamide] the melting point was 47 to 49 °C.
Work on `CC(C)(C)c1ccc(-c2nc(COCCc3cccc(NS(=O)(=O)C(F)(F)F)c3)no2)cc1` [Example 81, N-{3-[2-(5-(4-tert-Butyl-phenyl)-[1,2,4]oxadiazol-3-ylmethoxy)-ethyl]-phenyl}-C,C,C-trifluoro-methanesulfonamide] yielded a melting point of 75 to 77 °C.
For `O=S(=O)(Nc1cccc(CCOCc2ccc(-c3ccc(OC(F)(F)F)cc3)cc2F)c1)C(F)(F)F` [Example 18, C,C,C-Trifluoro-N-{3-[2-(3-fluoro-4′-trifluoromethoxy-biphenyl-4-yl-methoxy)-ethyl]-phenyl}-methanesulfonamide], the melting point was 114 to 115 °C.
For `O=S(=O)(Nc1cccc(CCOCc2noc(-c3ccc(C(F)(F)F)cc3)n2)c1)C(F)(F)F` [Example 87, N-{3-[2-(5-(4-trifluoromethylphenyl)-[1,2,4]oxadiazol-3-ylmethoxy)-ethyl]-phenyl}-C,C,C-trifluoro-methanesulfonamide], the melting point was 83 to 86 °C.
In the case of `O=S(=O)(Nc1cccc(CCOCc2nc(-c3ccc(C(F)(F)F)cc3)sc2Cl)c1)C(F)(F)F` [Example 63, N-(3-{2-[5-Chloro-2-(4-trifluoromethyl-phenyl)-thiazol-4-ylmethoxy]-ethyl}-phenyl)-C,C,C-trifluoromethanesulfonamide], the melting point is reported as 107 to 109 °C.
In the case of `COc1ccc(-c2ccc(Cl)cc2)cc1COCCc1cccc(NC(N)=O)c1` [Example 41, {3-[2-(4′-Chloro-4-methoxy-biphenyl-3-ylmethoxy)-ethyl]-phenyl}-urea], the melting point is reported as 155 °C (dec.).
In the case of `COc1ccc(-c2nc(COCCc3cccc(NS(=O)(=O)C(F)(F)F)c3)no2)cc1` [Example 85, N-{3-[2-(5-(4-methoxy-phenyl)-[1,2,4]oxadiazol-3-ylmethoxy)-ethyl]-phenyl}-C,C,C-trifluoro-methanesulfonamide], the melting point is reported as 88 to 90 °C.
Work on `O=S(=O)(Nc1cccc(CCOCc2ccc(-c3cccc(Cl)c3)cc2)c1)C(F)(F)F` [Example 5, N-{3-[2-(3′-Chloro-biphenyl-4-ylmethoxy)-ethyl]-phenyl}-C,C,C-trifluoromethane sulfonamide] yielded a melting point of 105 to 107 °C.
For `COc1ccc(-c2ccc(F)cc2)cc1COCCc1cccc(NS(=O)(=O)C(F)(F)F)c1` [Example 30, N-{3-[2-(4′-Fluoro-4-methoxy-biphenyl-3-ylmethoxy)-ethyl]-phenyl)-C,C,C-trifluoro-methanesulfonamide], the melting point was 55 to 57 °C.
Compound `COc1ccc(-c2ccc(COCCc3cccc(NS(=O)(=O)C(F)(F)F)c3)c(F)c2)cc1` [Example 32, N-{3-[2-(3-fluoro-4′-methoxy-biphenyl-4-ylmethoxy)-ethyl]-phenyl)-C,C,C-trifluoromethanesulfonamide] has a melting point of 82 to 84 °C.
Work on `O=S(=O)(Nc1cccc(CCOCc2nc(-c3ccc(F)cc3)sc2Br)c1)C(F)(F)F` [Example 62, N-(3-{2-[5-Bromo-2-(4-fluoro-phenyl)-thiazol-4-ylmethoxy]-ethyl}-phenyl)-C,C,C-trifluoromethanesulfonamide] yielded a melting point of 84 to 85 °C.
Compound `O=S(=O)(Nc1cccc(CCOCc2csc(-c3ccccc3)n2)c1)C(F)(F)F` [Example 58, C,C,C-Trifluoro-N-{3-[2-(2-phenyl-thiazol-4-ylmethoxy)-ethyl]phenyl}-methane sulfonamide] has a melting point of 112 to 113 °C.
For `Cc1c(COCc2cccc(-c3nn[nH]n3)c2)cccc1-c1ccccc1` [Example 33, 5-[3-(2-Methyl-biphenyl-3-ylmethoxymethyl)-phenyl]-2H-tetrazole], the melting point was 112 to 114 °C.
Compound `O=S(=O)(Nc1cccc(CCOCc2ccc(-c3ccc(C(F)(F)F)cc3)cc2F)c1)C(F)(F)F` [Example 14, C,C,C-Trifluoro-N-{3-[2-(3-fluoro-4′-trifluoromethyl-biphenyl-4-yl-methoxy)-ethyl]-phenyl}-methanesulfonamide] has a melting point of 121 to 122 °C.
With `NC(=O)Nc1ccc(CCOCc2ccccc2-c2ccccc2)cc1` [Example 38, {4-[2-(Biphenyl-2-ylmethoxy)-ethyl]-phenyl}-urea] the melting point was 143 to 144 °C.
With `O=S(=O)(Nc1cccc(CCOCc2cccc(-c3ccc(F)cc3)n2)c1)C(F)(F)F` [Example 64, C,C,C-Trifluoro-N-(3-{2-[6-(4-fluoro-phenyl)-pyridin-2-ylmethoxy]-ethyl}-phenyl)-methanesulfonamide] the melting point was 71 to 73 °C.
`O=S(=O)(Nc1cccc(CCOCc2cccc(-c3cc(Cl)cc(Cl)c3)c2)c1)C(F)(F)F` [Example 34, N-{3-[2-(3′,5′-Dichloro-biphenyl-3-ylmethoxy)-ethyl]-phenyl)-C,C,C-trifluoro-methanesulfonamide] showed a melting point of 52 to 54 °C.
`O=S(=O)(Nc1cccc(CCOCc2ccc(I)cc2)c1)C(F)(F)F` [Example 74, N-{3-[2-(4-Iodo-benzyloxy)-ethyl]-phenyl}-C,C,C-trifluoro-methanesulfonamide] showed a melting point of 48 to 50 °C.
